Reference: patent publication EP4755885A1 (Shanghai Hansoh Biomedical Co., Ltd., priority 2023, dated 2025)

How the values were obtained:
human GLP-1 receptor [1] = target: T1, human GLP-1 receptor (Homo sapiens, UniProt P43220); experiment: cAMP production in cell line stably transformed with human GLP1 receptor, 30 min co-incubation (HTRF); assay type: cell-based; conditions: CHO-K1/GLP-1R/CRE-luc cells, stimulation for 0.5 h, read-out: EC50
T1 construct: expressed in transfected cells
Description: (§1) The purpose of this assay example is to test the ability of the compound to activate the human GLP-1 receptor on cell surface. The EC50 for stimulated cAMP production after activation characterizes the ability of the compound to activate the human GLP-1 receptor.
In this experiment, the compound and cells were co-incubated for 30 min.
(§2) Frozen cell line CHO-K1/GLP-1R/CRE-luc stably transformed with human GLP1 receptor was removed from a liquid nitrogen tank, and was placed in a 37°C water bath for rapid thawing. The cells were resuspended in DMEM/F12 medium, and after centrifugation, were washed once. The cells were resuspended in an experimental buffer, i.e., DMEM/F12 medium containing 0.1% casein. After centrifugation, cell density was adjusted using the experimental buffer. The cells were plated onto a 384-well plate at a density of 1500 cells/5 µL/well. Then, each well was added with 2.5 µL of IBMX working solution prepared with the buffer, the final concentration of IBMX being 0.5 mM, and 2.5 µL of a serially diluted compound sample (starting from […], 3-fold dilution, 12 concentrations). The plate was centrifuged at 1000 rpm for 1 min, and was stood for incubation at 37°C for 0.5 h. Determination was performed using the Cisbio cAMP - Gs Dynamic kit. cAMP-d2 and anti-cAMP-Eu3+-Cryptate were diluted 18-fold and 20-fold respectively with cAMP Lysis & Detection Buffer, and were respectively mixed homogeneously. Each well was added with 5 µL of diluted cAMP-d2 solution, and the plate was centrifuged at 1000 rpm for 1 min, and shaken for 30 seconds for homogeneous mixing. Then, each well was added with 5 µL of diluted anti-cAMP-Eu3+-Cryptate solution, and the plate was centrifuged at 1000 rpm for 1 min and was incubated in the dark at room temperature for 1 h. HTRF signals were read using the Biotek Synergy H1 microplate reader, the excitation wavelength being 320 nm and the emission wavelengths being 620 nm and 665 nm.
(§3) The signal-to-signal ratio was calculated (665 nm/620 nm * 10,000). Nonlinear fitting between the signal-to-signal ratio and the sample concentration was performed in GraphPad Prism 10 using a four-parameter equation to obtain the EC50 value.

[2] = Pharmacokinetic evaluation in rats, oral administration; set-up: species or system SD rats; conditions: rat, in vivo, p.o. 5 mg/kg, plasma; for MRT inf: read-out: MRT 0-∞
Description: SD rats were used as test animals to study the pharmacokinetic behavior of the following example compounds, administered orally at a dose of 5 mg/kg, in the plasma of the rats. SD rats, 3 per group, male. […] An example compound was weighed and added to a 4 mL glass bottle, and the solution was added. […] Sonication was performed for 10 min to obtain a colorless clear solution having a concentration of 0.5 mg/mL. […] The blood samples were placed in EDTA-K2 tubes and centrifuged at 6000 rpm at 4°C for 6 min to separate plasma, which was stored at -80°C. […] • Liquid phase conditions: Shimadzu LC-20AD pump • Mass spectrometry conditions: AB Sciex API 4000 mass spectrometer • Chromatographic column: phenomenex Gemiu 5 um C18 50 × 4.6 mm • Mobile phase: Solution A was 0.1% formic acid aqueous solution, and Solution B was methanol • Flow rate: 1.0 mL/min • Elution time: 0-4.0 min, the eluent was as follows: […] The results of the rat pharmacokinetic experiment are shown in the table below: Table 5: Pharmacokinetic parameters of oral administration of the compound of the present invention in rats

[3] = Pharmacokinetic evaluation in mice, oral administration; assay type: in vivo, Balb/c mice; conditions: p.o. 5 mg/kg, plasma; for AUC(0-inf) / AUC(0-t) / Cmax / Tmax / MRT inf: mouse, in vivo, po; for MRT inf: read-out: MRT 0-∞
Description: Balb/c mice were used as test animals to study the pharmacokinetic behavior of the compound of the present invention in mice (plasma) at a dose of 5 mg/kg administered orally and 1 mg/kg administered intravenously.
Balb/c mice, 3 per group, male.
(§4) Preparation of drug for oral administration: 10%PEG400/10%PG/80% glycine buffer (100 mM glycine, 64 Mm NaOH, […]) buffer.
10 ml of PEG400, 10 ml of PG, and 80 ml of (100 mM glycine, 64 Mm NaOH, pH = 9) were measured into a 100 ml volumetric flask, vortexed, mixed homogeneously, and sonicated to obtain a clear solution.
Single PK: An example compound was weighed into a 4 mL glass bottle. The solution was added, and sonication was performed for 10 min to obtain a colorless clear solution having a concentration of 0.5 mg/mL.
The solution was added, and sonication was performed for 10 min to obtain a colorless clear solution having a concentration of 0.5 mg/mL.
Three Balb/c mice, male, respectively administered p.o. after fasting overnight, at a dose of 5 mg/kg and in an administration volume of 10 mL/kg.
The blood samples were placed in EDTA-K2 anticoagulant tubes and centrifuged at 6000 rpm at 4°C for 6 min to separate plasma, which was stored at -80°C. The mice were fed 4 h after administration.
(§5) • 1) 40 µL of a plasma sample was added with 160 µL of acetonitrile for precipitation, and after mixing, the mixture was centrifuged at 3500 × g for 5 to 20 min. • 2) The supernatant solution after treatment was taken for LC/MS/MS analysis of the concentration of the test compound. The LC/MS/MS analysis instrument was AB Sciex API 4000 Qtrap.
• Liquid phase condition: Shimadzu LC-20AD pump • Chromatographic column: Agilent ZORBAX XDB-C18 (50×2.1 mm, 3.5 µm) Mobile phase: Solution A was 0.1% formic acid aqueous solution, and Solution B was acetonitrile • Flow rate: 0.4 mL/min • Elution time: 0-4.0 min, the eluent was as follows:
Main pharmacokinetic parameters were calculated using WinNonlin 6.1.

[4] = Pharmacokinetic evaluation in beagles, oral administration; assay type: in vivo; conditions: dog, po, p.o. 2 mg/kg, plasma
Description: Beagles were used as test animals to study the pharmacokinetic behavior of the compound of the present invention, administered orally at a dose of 2 mg/kg, in beagles (plasma).
Beagles, 3 per group, male.
as §4
(§6) Single PK: The compound of the present invention was weighed into a 100 mL glass bottle, and the solution was added. The pH was first adjusted with 1 M NaOH until the compound dissolves to obtain a clear solution, and then the pH was readjusted to pH 9.0-9.5 with 1 M HCl. Sonication was performed for 10 min to obtain a colorless clear solution having a concentration of 0.4 mg/mL.
Three beagles, male, respectively administered p.o. after fasting overnight, at a dose of 2 mg/kg and in an administration volume of 5 mL/kg.
(§7) Blood collection: 0.3 mL of blood was collected from the forelimb vein of the beagles before administration and at 0.25, 0.5, 1, 2, 4, 6, 8, and 24 h after administration. The blood samples were placed in EDTA-K2 anticoagulant tubes and centrifuged at 6000 rpm at 4°C for 6 min to separate plasma, which was stored at -80°C. The beagles were fed 4 h after administration.
as §5
(§8) • Liquid phase condition: Shimadzu LC-20AD pump • Chromatographic column: Agilent ZORBAX XDB-C18 (50×2.1 mm, 3.5 µm) Mobile phase: Solution A was 0.1% formic acid aqueous solution, and Solution B was acetonitrile • Flow rate: 0.4 mL/min • Elution time: 0-4.0 min, the eluent was as follows: […]

human GLP-1 receptor [5] = target: T1, human GLP-1 receptor; experiment: cAMP production in cell line stably transformed with human GLP1 receptor, 2 h co-incubation (HTRF); assay type: cell-based; conditions: CHO-K1/GLP-1R/CRE-luc cells, stimulation for 2 h, read-out: EC50
Description: as §1
In this experiment, the compound and cells were co-incubated for 2 h.
as §2, with “for 2” for “for 0.5”
as §3

[6] = Pharmacokinetic evaluation in Macaca fascicularis monkeys, oral administration; assay type: in vivo; conditions: cynomolgus monkey, p.o. 5 mg/kg, plasma
Description: Macaca fascicularis monkeys were used as test animals to study the pharmacokinetic behavior of the compound of the present invention, administered orally at a dose of 5 mg/kg, in Macaca fascicularis monkeys (plasma).
Macaca fascicularis monkeys, 3 per group, male.
as §4
as §6, with “1” for “0.4”
Three Macaca fascicularis monkeys, male, respectively administered p.o. after fasting overnight, at a dose of 5 mg/kg and in an administration volume of 5 mL/kg.
as §7, with “Macaca fascicularis monkeys” for “beagles”
as §5, §8

[7] = not marked single PK (cassette PK)

T1 sequence (P43220 24-463): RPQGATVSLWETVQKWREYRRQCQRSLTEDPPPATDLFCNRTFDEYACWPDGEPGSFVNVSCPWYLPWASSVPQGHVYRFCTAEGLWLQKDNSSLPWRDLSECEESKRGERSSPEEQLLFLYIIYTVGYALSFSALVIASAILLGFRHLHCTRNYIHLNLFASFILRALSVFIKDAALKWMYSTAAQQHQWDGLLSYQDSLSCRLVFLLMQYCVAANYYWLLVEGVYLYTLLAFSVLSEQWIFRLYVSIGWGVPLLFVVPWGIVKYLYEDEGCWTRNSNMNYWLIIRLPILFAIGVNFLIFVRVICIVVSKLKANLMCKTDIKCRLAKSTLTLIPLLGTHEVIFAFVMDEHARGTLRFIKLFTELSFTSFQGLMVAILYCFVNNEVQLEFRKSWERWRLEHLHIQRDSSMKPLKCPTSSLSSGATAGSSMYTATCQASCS

SMILES	EC50 (human GLP-1 receptor [1]) [pM]	AUC(0-inf) [2] [ng·h/mL]	AUC(0-t) [2] [ng·h/mL]	Cmax [2] [ng/mL]	Tmax [2] [h]	half-life [2] [h]	MRT inf [2] [h]	AUC(0-inf) ([3]; single PK) [ng·h/mL]	AUC(0-t) ([3]; single PK) [ng·h/mL]	Cmax ([3]; single PK) [ng/mL]	Tmax ([3]; single PK) [h]	MRT inf ([3]; single PK) [h]	tl/2 ([3]; single PK) [h]	also measured
Cc1cc(-n2nc3c(c2-n2ccn(-c4ccc(N=S(C)(C)=O)cc4F)c2=O)[C@H](C)N(C(=O)c2cc4cc([C@H]5CCOC(C)(C)C5)ccc4n2[C@@]2(c4noc(=O)[nH]4)C[C@@H]2C)CC3)cc(C)c1F [Example 1]	370													
Cc1cc(-n2nc3c(c2-n2ccn(-c4ccc5c(c4)CCc4nnc(C)n4-5)c2=O)[C@H](C)N(C(=O)c2cc4cc([C@H]5CCOC(C)(C)C5)ccc4n2[C@@]2(c4noc(=O)[nH]4)C[C@@H]2C)CC3)cc(C)c1F [Example 8]	510													
Cc1cc(-n2nc3c(c2-n2ccn(-c4ccc5c(c4F)C4(CC4)C(=O)N5C)c2=O)[C@H](C)N(C(=O)c2cc4cc([C@H]5CCOC(C)(C)C5)ccc4n2[C@@]2(c4noc(=O)[nH]4)C[C@@H]2C)CC3)cc(C)c1F [Example 15]	320													
Cc1cc(-n2nc3c(c2-n2ccn(-c4ccc5c(cnn5C5CC5)c4F)c2=O)[C@H](C)N(C(=O)c2cc4cc([C@H]5CCOC(C)(C)C5)ccc4n2[C@@]2(c4noc(=O)[nH]4)C[C@@H]2C)CC3)cc(C)c1F [Example 25]		37300	28500	1960	6	10.5	16.4							AUC(0-inf) [3, 7]: 39000 ng·h/mL; AUC(0-t) [3, 7]: 30500 ng·h/mL; Cmax [3, 7]: 2060 ng/mL; Tmax [3, 7]: 2 h; MRT inf [3, 7]: 15.2 h; tl/2 [3, 7]: 10.7 h
Cc1cc(-n2nc3c(c2-n2ccn(-c4ccc5c6c(nn5C)CCCOc46)c2=O)[C@H](C)N(C(=O)c2cc4cc([C@H]5CCOC(C)(C)C5)ccc4n2[C@@]2(c4noc(=O)[nH]4)C[C@@H]2C)CC3)cc(C)c1F [Example 35]		14100	12400	1110	4.7	7.2	11.5	41000	32900	3070	1.2	13.9	10.3	
Cc1cc(-n2nc3c(c2-n2ccn(-c4ccc5c(cnn5C5CC5)c4F)c2=O)[C@H](C)N(C(=O)c2cc4cc([C@H]5CCOC(C)(C)C5)ccc4n2[C@@]2(c4noc(=O)[nH]4)[C@@H]4COC[C@@H]42)CC3)cc(C)c1F [Example 65-1]								10900	10600	1220	2.7	6.5	4.8	AUC(0-inf) [4]: 43900 ng·h/mL; AUC(0-t) at 24 h [4]: 41000 ng·h/mL; half-life [4]: 5.9 h; Cmax ([4]; read-out: Cmax): 4360 ng/mL; MRT inf ([4]; read-out: MRT 0-∞): 8.1 h; Tmax ([4]; read-out: tmax): 2.8 h; EC50 (human GLP-1 receptor [5]): 60 pM; AUC(0-inf) [6]: 30800 ng·h/mL; AUC(0-t) [6]: 29700 ng·h/mL; Cmax [6]: 4460 ng/mL; Tmax [6]: 2 h; half-life [6]: 5.6 h; MRT inf ([6]; read-out: MRT 0-∞): 7.5 h
